The record followed here is US10058097B2, “Methods to increase corn productivity” (Valent BioSciences Corporation, priority 2016, dated 2018).

Format in all cases: in vivo
In assay [1] the test system is corn. Kind of assay: Greenhouse study: GB alone or in combination with GA4, nine days. To be noted: GA4 120 mg/liter, GB 10,000 mg/liter; n = 7 plants. As to the method:
(§1) In several of the following examples, corn was grown in greenhouse conditions, which are defined as follows. Seeds of a commercial hybrid variety were sown in Pro-Mix® BX (Pro-Mix is a registered trademark of Premier Horticulture Ltd.) with the addition of Osmocote (14-14-14) and gypsum in three-liter pots. Greenhouses were kept at 25±3° C. under a 16:8 hour photoperiod, with illumination at canopy level of ˜250 μmoles m^−2s^−1. Corn was typically fertigated with Peters 21-5-20+micronutrients, calcium ammonium nitrate and magnesium sulfate. Typical growth rates for corn under these conditions ranged from 4-5 cm/day.
(§2) In most greenhouse studies, spray applications were made. These applications were made in a track sprayer outfitted with a 4001E Teejet® nozzle (Teejet is available from and a registered trademark of Spraying Systems Co., Glendale Heights, Ill., USA) and applied at 40 psi. Although application volumes did vary between some studies, generally, 30 gallons/acre of spray solution was applied. Following spray applications, plants were returned to the greenhouse. Typically, experiments were blocked according to plant size, and a randomized complete block design (RCB) was used.
(§3) Synergy was determined using the following formula, in which a synergy factor is calculated by the Abbott method: % Cexp=A+B−(AB/100), here % Cexp is the expected efficacy and “in which A and B are the increase in growth (or resistance to stress) levels given by the single [plant growth regulators]. If the ratio between the experimentally observed efficacy of the mixture Cobs and the expected efficacy of the mixture is greater than 1, synergistic interactions are present in the mixture” (Gisi, Synergistic Interaction of Fungicides in Mixtures, The American Phytopathological Society, 86:11, 1273-1279, 1996).
In a greenhouse study, the effect of combining GB with GA4 was studied.

The test system of assay [2] is corn. Kind of assay: Greenhouse study: Gibberellins, (S)-ABA and Glycine betaine on corn growth. To be noted: GA3 or GA4 120 mg/liter, GB 10000 mg/liter, (S)-ABA 8.8 mg/liter. On the procedure:
as §1, §2
When gibberellins are combined with specific ratios of (S)-(+)-abscisic acid (“(S)-ABA”), a surprising enhancement of corn growth after application is often observed. The addition of GB to gibberellin+(S)-ABA spray combinations further increases the growth-promoting activity of the mixtures, as is shown in Table 6.

Assay [3] relates to corn plants. Nature of the assay: Greenhouse study: growth of corn after V3 spray with GA3 or GB, nine days. The note with it: non-stressed greenhouse; spray at V3; GA3 120 mg/liter, GB 3000 mg/liter; n = 7. On the procedure: as §1, §2
In a greenhouse study conducted in Long Grove, Ill., corn plants were sprayed at V3 stage with solutions containing a non-ionic surfactant (0.25%, v/v) at 30 gallons of spray solution/acre and growth was followed for nine days.
as §3
Based on a conservative approach, synergy was determined to be present at ratios of ≥1.10. When grown under non-stressed conditions, GA3 growth was synergized by the addition of 3,000 mg/liter glycine betaine (“GB”), with a synergy factor of 1.65 for growth and 1.68 for growth rate while dry weight/plant was not synergistic with a synergy factor of 0.95.

For assay [4], the system named is greenhouse-grown maize. Kind of assay: Greenhouse study: effect of GA3 dose +/- GB on growth, 7 and 14 days. To be noted: GA3 0 mg/liter, GB 10000 mg/liter. As to the method:
as §1, §2, §3
In a separate study, the effect of one rate of GB on various doses of GA3 was studied.

The subject of assay [5] is greenhouse-grown maize. Kind of assay: Leaf chlorophyll by SPAD meter, GA3 dose +/- GB. The note with it: GA3 0 mg/liter, GB 10000 mg/liter; n = 8 plants. On the procedure:
In the same study, leaf chlorophyll was monitored by measurements with a SPAD meter (Minolta Model 502; Ramsey, N.J.). In this study, the chlorophyll level in the most recently fully-expanded leaf was measured at five different points and the results averaged.

In assay [6] the test system is corn plants. Kind of assay: Chilling stress study (10° C. for five days) after spray with GA3 or GB. To be noted: chilling stress at 10° C. for five days; GA3 120 mg/liter, GB 3000 mg/liter; n = 7 plants. On the procedure: In stress studies, plants were subjected to various stresses. In cold stress studies, after spraying, plants were grown in the greenhouse for an additional 48 hours before being measured and moved to a CMP6050 CONVIRON® chamber kept at 10° C. (Conviron is a registered trademark of Controlled Environments Limited Corporation). Illumination was at ˜225 μMoles, and light:dark conditions were on a 12:12 hour photoperiod. After 120 hours of chilling, plants were removed from the cold, measured, and returned to the greenhouse for 48 hours prior to harvest.
as §3
In a greenhouse and growth room study conducted in Long Grove, Ill., corn plants of a commonly grown hybrid were subjected to the following stress regimen: at two days post-foliar application, plants were moved into a controlled environment chamber, where the temperature was maintained at 10° C. with a 12:12 hour photoperiod for five days. At the end of the chilling period, the corn was moved back to the greenhouse for two days before destructive harvest.

The subject of assay [7] is corn. Nature of the assay: Nutrient stress greenhouse study, GA3 and/or GB, 7 days. The note with it: GA3 120 mg/liter, GB 10,000 mg/liter; for Change in Height: n = 7 plants. On the procedure: as §3
During rainy periods in March-May in the Midwestern United States, nitrogen fertilizer for corn is often limited due to a combination of leaching and mineralization. GB included with GA3 can help overcome the slow growth caused by low nutrients. In a greenhouse study in Long Grove, Ill. we evaluated the effect of GA3, GB and the combination under ‘normal nutrient’ and limited nutrient conditions.

The test system of assay [8] is potted corn plants. Nature of the assay: Chronic drought stress greenhouse study, potted corn, 14 days. The note with it: 20 Percent Volumetric Water Content, 120 mg/liter GA3, 3000 mg/liter GB, n = 5. On the procedure:
In drought stress studies, corn plants were sprayed at the V4 stage with solutions containing a non-ionic surfactant (0.25%, v/v) at 30 gallons of spray solution/acre and growth was determined by change in height from time of treatment or fresh and dry shoot weight measurements 14 days later.
In greenhouse drought stress studies, corn plants were treated and subsequently watered with an automated irrigation system that maintained the soil moisture in the pots at 45% or 20% volumetric water content (“VWC”). Plants set to 20% after treatment took about 4 days without the automated system adding water to those pots to reach 20% VWC and then the automated system added water as needed to maintain 20% VWC. Total soil moisture capacity was 45% VWC and 20% VWC represented drought stress conditions. This would be considered chronic stress, as a lower level of VWC was maintained throughout the experiment after treatment.

The subject of assay [9] is potted corn plants. Kind of assay: Acute drought stress greenhouse study, potted corn, 7 and 14 days. The note with it: acute drought stressed; 120 ppm GA3, 3000 ppm GB; spray at V4. On the procedure:
In a separate acute drought stress greenhouse study conducted in Long Grove, Ill., corn plants were sprayed at V4 stage with solutions containing a non-ionic surfactant (0.25%, v/v) at 30 gallons of spray solution/acre and growth was determined by shoot height increase 7 and 14 days later. After treatment corn plants were not watered with the exception of one treatment of control (aqueous surfactant solution) that were watered as needed (well-watered control).

Take `C=C1C[C@]23C[C@H]1CC[C@H]2[C@@]12CC[C@H](O)[C@@](C)(C(=O)O1)[C@H]2[C@@H]3C(=O)O` [GA4, gibberellin A4]: in the assay on corn [1], the “Dry Weight” value amounted to 7.68 g, the “Growth Rate” value is recorded as 7.1 cm/day and the “Plant Growth over 9 days” value is 64.1 cm. Moreover, in the assay on corn [2], the “7 days Change in Height” value was 33.9 cm, the “14 days Change in Height” value is 62.2 cm and the “Dry Weight” value is 8.1 g.
As to `C[N+](C)(C)CC(=O)[O-]` [GB, Glycine betaine], in the assay on corn plants [3], the “Dry Weight/Plant” value worked out at 2.75 g, the “Growth Rate” value stood at 4.49 cm/day and the “Growth over 9 days” value came out at 40.4 cm. In the assay on greenhouse-grown maize [4], the “Growth Rate, 0-7 day(s)” value came out at 2.51 cm/day; the “Growth Rate, 0-14 day(s)” value came out at 6.23 cm/day; the “Plant Growth over 14 days” value worked out at 43.6 cm. In the assay on greenhouse-grown maize [4] (n = 8 plants), the “Plant Growth over 7 days” value is recorded as 17.6 cm. In addition, in the assay with greenhouse-grown maize [5], the “Chlorophyll (SPAD reading) 14 days” value is 34.0 SPAD reading. Besides, in the assay with corn [1], the “Dry Weight” value came to 7.47 g, the “Growth Rate” value amounted to 6.1 cm/day and the “Plant Growth over 9 days” value was 55.2 cm. Moreover, in the assay with corn plants [6], the “Growth Rate” value is given as 2.16 cm/day, the “Growth over 9 days” value was 19.41 cm and the “Leaf Area of L1-L5” value is on record as 356.47 cm^2. In addition, in the assay on corn [7] (Low Nutrients), the “Dry Weight” value came to 2.79 g, the “Leaf Area (L1-L6)” value was found to be 611.73 cm^2 and the “Change in Height” value is recorded as 24.54 cm. Also, in the assay on corn [7] (Normal Nutrients), the “Dry Weight” value is recorded as 3.25 g, the “Leaf Area (L1-L6)” value is reported as 656.76 cm^2 and the “Change in Height” value is listed as 35.37 cm. In the assay with potted corn plants [8], the “Percent Dry Weight of Drought Stressed Control” value turned out to be 94.33% and the “Percent Fresh Weight of Drought Stressed Control” value was 93.16%. In the assay on potted corn plants [9], the “Shoot Growth 7 days after treatment as Percent Increase as compared to Drought Stressed Control” value is on record as 95.9% and the “Shoot Growth 14 days after treatment as Percent Increase as compared to Drought Stressed Control” value came out at 97.6%.
